Assay results reported in PubChem BioAssay AID2060343 (Molecular Pharmacology Branch, DTP, NCI, 2025).

Tested on: 138582-337-R-J1-PDC spheroids with HUVEC/MSC, viability
Experiment: Anticancer human tumor 138582-337-R-J1-PDC patient-derived Merkel cell tumor cell line growth inhibition [IpAb]
Settings: for IC50: curve of first compound; for viability, T/C: stronger effect = lower value
Summary of the method: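 Combinations with ipatasertib or abemaciclib were tested on tumour spheroids holding HUVEC (25%) and MSC (15%) alongside 60% malignant cells. Top concentration was at or near clinical Cmax (10 microM if undefined), descending in half-log steps.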

[1] = second compound 0.01 µM, first compound 0.0316 µM
[2] = second compound 0.01 µM, first compound 0.1 µM
[3] = second compound 0.01 µM, first compound 0.316 µM
[4] = second compound 0.01 µM, first compound 1 µM
[5] = second compound 0.01 µM, first compound 3.16 µM
[6] = second compound 0.01 µM, first compound 10 µM
[7] = second compound 0.0316 µM, first compound 0.0316 µM
[8] = second compound 0.0316 µM, first compound 0.1 µM
[9] = second compound 0.0316 µM, first compound 0.316 µM
[10] = second compound 0.0316 µM, first compound 1 µM
[11] = second compound 0.0316 µM, first compound 3.16 µM
[12] = second compound 0.0316 µM, first compound 10 µM
[13] = second compound 0.1 µM, first compound 0.0316 µM
[14] = second compound 0.1 µM, first compound 0.1 µM
[15] = second compound 0.1 µM, first compound 0.316 µM
[16] = second compound 0.1 µM, first compound 1 µM
[17] = second compound 0.1 µM, first compound 3.16 µM
[18] = second compound 0.1 µM, first compound 10 µM
[19] = second compound 0.316 µM, first compound 0.0316 µM
[20] = second compound 0.316 µM, first compound 0.1 µM
[21] = second compound 0.316 µM, first compound 0.316 µM
[22] = second compound 0.316 µM, first compound 1 µM
[23] = second compound 0.316 µM, first compound 3.16 µM
[24] = second compound 0.316 µM, first compound 10 µM
[25] = second compound 1 µM, first compound 0.0316 µM
[26] = second compound 1 µM, first compound 0.1 µM
[27] = second compound 1 µM, first compound 0.316 µM
[28] = second compound 1 µM, first compound 1 µM
[29] = second compound 1 µM, first compound 3.16 µM
[30] = second compound 1 µM, first compound 10 µM
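Further: spheroids exposed to compounds for seven days.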
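Wherever viability, T/C is given: 100% = DMSO vehicle control viability.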

Row | SMILES | IC50 (second compound 0.01 µM) | IC50 (second compound 0.0316 µM) | IC50 (second compound 0.1 µM) | IC50 (second compound 0.316 µM) | IC50 (second compound 1 µM) | viability, T/C [1] | viability, T/C [2] | viability, T/C [3] | viability, T/C [4] | viability, T/C [5] | viability, T/C [6] | viability, T/C [7] | viability, T/C [8] | viability, T/C [9] | viability, T/C [13] | viability, T/C [14] | viability, T/C [19] | viability, T/C [20] | viability, T/C [25] | viability, T/C [26] | other results
1 | C=CC(=O)N1CCN(c2nc(=O)n(-c3c(C)ccnc3C(C)C)c3nc(-c4c(O)cccc4F)c(F)cc23)C(C)C1 (stereo not given) + CCN1CCN(Cc2ccc(Nc3ncc(F)c(-c4cc(F)c5nc(C)n(C(C)C)c5c4)n3)nc2)CC1 | > 10000 nM | > 10000 nM | > 10000 nM | > 10000 nM | > 10000 nM | 107% | 107% | 121% | 121% | 143% | 176% | 98.7% | 95.7% | 90.7% | 83.7% | 90.6% | 94.8% | 94.3% | 104% | 96.8% | viability, T/C [10]: 116%; viability, T/C [11]: 125%; viability, T/C [12]: 186%; viability, T/C [15]: 104%; viability, T/C [16]: 119%; viability, T/C [17]: 139%; viability, T/C [18]: 218%; viability, T/C [21]: 92.8%; viability, T/C [22]: 105%; viability, T/C [23]: 144%; viability, T/C [24]: 229%; viability, T/C [27]: 111%; viability, T/C [28]: 118%; viability, T/C [29]: 135%; viability, T/C [30]: 282%
2 | Cn1ncc(Cl)c1-c1cc(C(=O)NC(CN)Cc2cccc(F)c2)sc1Cl (stereo not given) + CCN1CCN(Cc2ccc(Nc3ncc(F)c(-c4cc(F)c5nc(C)n(C(C)C)c5c4)n3)nc2)CC1 | 1500 nM | 1270 nM | 1200 nM | 1190 nM | 792 nM | 88.8% | 73.4% | 61.9% | 50.3% | 50.6% | 0.19% | 83.8% | 70.8% | 58.5% | 84.4% | 84.6% | 92.8% | 81.8% | 94.2% | 95.3% | viability, T/C [10]: 50.2%; viability, T/C [11]: 45.4%; viability, T/C [12]: 0.24%; viability, T/C [15]: 61.1%; viability, T/C [16]: 48.9%; viability, T/C [17]: 40.7%; viability, T/C [18]: 0.17%; viability, T/C [21]: 68%; viability, T/C [22]: 52.1%; viability, T/C [23]: 35.3%; viability, T/C [24]: 0.21%; viability, T/C [27]: 70.3%; viability, T/C [28]: 39.9%; viability, T/C [29]: 25.1%; viability, T/C [30]: 0.27%
3 | Cn1ncnc1[C@H]1c2n[nH]c(=O)c3cc(F)cc(c23)N[C@@H]1c1ccc(F)cc1 + CCN1CCN(Cc2ccc(Nc3ncc(F)c(-c4cc(F)c5nc(C)n(C(C)C)c5c4)n3)nc2)CC1 | > 100 nM | > 100 nM | > 100 nM | > 100 nM | > 100 nM | 78.5% | 78.9% | – | – | – | – | 69.8% | 66.2% | – | 90.8% | 86.4% | 78.3% | 72.4% | 90.9% | 91.2% | viability, T/C (second compound 0.01 µM, first compound 0.000316 µM): 102%; viability, T/C (second compound 0.01 µM, first compound 0.001 µM): 93.4%; viability, T/C (second compound 0.01 µM, first compound 0.00316 µM): 91.8%; viability, T/C (second compound 0.01 µM, first compound 0.01 µM): 80.7%; viability, T/C (second compound 0.0316 µM, first compound 0.000316 µM): 96.3%; viability, T/C (second compound 0.0316 µM, first compound 0.001 µM): 102%; viability, T/C (second compound 0.0316 µM, first compound 0.00316 µM): 89.5%; viability, T/C (second compound 0.0316 µM, first compound 0.01 µM): 76.5%; viability, T/C (second compound 0.1 µM, first compound 0.000316 µM): 89.7%; viability, T/C (second compound 0.1 µM, first compound 0.001 µM): 89.4%; viability, T/C (second compound 0.1 µM, first compound 0.00316 µM): 76.7%; viability, T/C (second compound 0.1 µM, first compound 0.01 µM): 78.4%; viability, T/C (second compound 0.316 µM, first compound 0.000316 µM): 85%; viability, T/C (second compound 0.316 µM, first compound 0.001 µM): 95.8%; viability, T/C (second compound 0.316 µM, first compound 0.00316 µM): 87.2%; viability, T/C (second compound 0.316 µM, first compound 0.01 µM): 80.3%; viability, T/C (second compound 1 µM, first compound 0.000316 µM): 99%; viability, T/C (second compound 1 µM, first compound 0.001 µM): 95.7%; viability, T/C (second compound 1 µM, first compound 0.00316 µM): 87.3%; viability, T/C (second compound 1 µM, first compound 0.01 µM): 79.5%
